Test results: PubChem BioAssay AID2060340 (Molecular Pharmacology Branch, DTP, NCI, 2025)

Test system: 349418-098-R-PDC spheroids, viability, % test/control
Assay: Anticancer human tumor 349418-098-R-PDC patient-derived lung adenocarcinoma cell line growth inhibition [IpAb]
Settings: spheroids with HUVEC and MSC; for IC50: curve of first compound; for viability, T/C: stronger effect = lower value
Method in brief: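 Multi-cell spheroids of 60% tumour cells, 25% HUVEC and 15% MSC in ultra-low-attachment U-bottom wells, treated with agents combined with ipatasertib or abemaciclib. Half-log ranges top out near clinical Cmax, or 10 microM when Cmax is unknown.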

[1] = second compound 0.01 µM, first compound 0.0316 µM
[2] = second compound 0.01 µM, first compound 0.1 µM
[3] = second compound 0.0316 µM, first compound 0.0316 µM
[4] = second compound 0.0316 µM, first compound 0.1 µM
[5] = second compound 0.1 µM, first compound 0.0316 µM
[6] = second compound 0.1 µM, first compound 0.1 µM
[7] = second compound 0.316 µM, first compound 0.0316 µM
[8] = second compound 0.316 µM, first compound 0.1 µM
[9] = second compound 1 µM, first compound 0.0316 µM
[10] = second compound 1 µM, first compound 0.1 µM
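Further: spheroids exposed to compounds for 7 days.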

SMILES: Cn1ncc(Cl)c1-c1cc(C(=O)NC(CN)Cc2cccc(F)c2)sc1Cl (stereo not given) + CCN1CCN(Cc2ccc(Nc3ncc(F)c(-c4cc(F)c5nc(C)n(C(C)C)c5c4)n3)nc2)CC1
- IC50 (second compound 0.01 µM): 49.8 nM
- IC50 (second compound 0.0316 µM): < 31.6 nM
- IC50 (second compound 0.1 µM): < 31.6 nM
- IC50 (second compound 0.316 µM): < 31.6 nM
- IC50 (second compound 1 µM): < 31.6 nM
- viability, T/C [1]: 63.1%
- viability, T/C [2]: 28.6%
- viability, T/C (second compound 0.01 µM, first compound 0.316 µM): 17.1%
- viability, T/C (second compound 0.01 µM, first compound 1 µM): 9.53%
- viability, T/C (second compound 0.01 µM, first compound 3.16 µM): 6.15%
- viability, T/C (second compound 0.01 µM, first compound 10 µM): 0.1%
- viability, T/C [3]: 36.9%
- viability, T/C [4]: 18.1%
- viability, T/C (second compound 0.0316 µM, first compound 0.316 µM): 9.18%
- viability, T/C (second compound 0.0316 µM, first compound 1 µM): 7.63%
- viability, T/C (second compound 0.0316 µM, first compound 3.16 µM): 5.83%
- viability, T/C (second compound 0.0316 µM, first compound 10 µM): 0.14%
- viability, T/C [5]: 21.3%
- viability, T/C [6]: 12.5%
- viability, T/C (second compound 0.1 µM, first compound 0.316 µM): 8.7%
- viability, T/C (second compound 0.1 µM, first compound 1 µM): 6.91%
- viability, T/C (second compound 0.1 µM, first compound 3.16 µM): 5.88%
- viability, T/C (second compound 0.1 µM, first compound 10 µM): 0.09%
- viability, T/C [7]: 16%
- viability, T/C [8]: 12.5%
- viability, T/C (second compound 0.316 µM, first compound 0.316 µM): 8.98%
- viability, T/C (second compound 0.316 µM, first compound 1 µM): 6.46%
- viability, T/C (second compound 0.316 µM, first compound 3.16 µM): 4.96%
- viability, T/C (second compound 0.316 µM, first compound 10 µM): 0.19%
- viability, T/C [9]: 14%
- viability, T/C [10]: 11.7%
- viability, T/C (second compound 1 µM, first compound 0.316 µM): 9.07%
- viability, T/C (second compound 1 µM, first compound 1 µM): 8.54%
- viability, T/C (second compound 1 µM, first compound 3.16 µM): 3.59%
- viability, T/C (second compound 1 µM, first compound 10 µM): 0.24%

SMILES: Cn1ncnc1[C@H]1c2n[nH]c(=O)c3cc(F)cc(c23)N[C@@H]1c1ccc(F)cc1 + CCN1CCN(Cc2ccc(Nc3ncc(F)c(-c4cc(F)c5nc(C)n(C(C)C)c5c4)n3)nc2)CC1
- IC50 (second compound 0.01 µM): 54.1 nM
- IC50 (second compound 0.0316 µM): < 0.316 nM
- IC50 (second compound 0.1 µM): < 0.316 nM
- IC50 (second compound 0.316 µM): < 0.316 nM
- IC50 (second compound 1 µM): < 0.316 nM
- viability, T/C (second compound 0.01 µM, first compound 0.000316 µM): 70.5%
- viability, T/C (second compound 0.01 µM, first compound 0.001 µM): 67.8%
- viability, T/C (second compound 0.01 µM, first compound 0.00316 µM): 73.1%
- viability, T/C (second compound 0.01 µM, first compound 0.01 µM): 64%
- viability, T/C [1]: 55.2%
- viability, T/C [2]: 44.5%
- viability, T/C (second compound 0.0316 µM, first compound 0.000316 µM): 38.7%
- viability, T/C (second compound 0.0316 µM, first compound 0.001 µM): 50.5%
- viability, T/C (second compound 0.0316 µM, first compound 0.00316 µM): 52.7%
- viability, T/C (second compound 0.0316 µM, first compound 0.01 µM): 36%
- viability, T/C [3]: 36.5%
- viability, T/C [4]: 25.2%
- viability, T/C (second compound 0.1 µM, first compound 0.000316 µM): 28.1%
- viability, T/C (second compound 0.1 µM, first compound 0.001 µM): 22.9%
- viability, T/C (second compound 0.1 µM, first compound 0.00316 µM): 23.9%
- viability, T/C (second compound 0.1 µM, first compound 0.01 µM): 23.2%
- viability, T/C [5]: 17.5%
- viability, T/C [6]: 16.4%
- viability, T/C (second compound 0.316 µM, first compound 0.000316 µM): 14.6%
- viability, T/C (second compound 0.316 µM, first compound 0.001 µM): 19.8%
- viability, T/C (second compound 0.316 µM, first compound 0.00316 µM): 16.2%
- viability, T/C (second compound 0.316 µM, first compound 0.01 µM): 17.8%
- viability, T/C [7]: 16.9%
- viability, T/C [8]: 13.1%
- viability, T/C (second compound 1 µM, first compound 0.000316 µM): 16.2%
- viability, T/C (second compound 1 µM, first compound 0.001 µM): 17.6%
- viability, T/C (second compound 1 µM, first compound 0.00316 µM): 16.2%
- viability, T/C (second compound 1 µM, first compound 0.01 µM): 13%
- viability, T/C [9]: 14.9%
- viability, T/C [10]: 12.8%
